Reference: patent US20050101595A1, “N-containing cycloalkyl-substituted amino-thiazole derivatives and pharmaceutical compositions for inhibiting cell proliferation and methods for their use” (PFIZER INC., priority 2003, published 2005)
Where a name gives a salt, the structure may show the parent alone. Read-outs that look alike come from different tables or passages of the source. Each block holds one compound with its values, some of them ahead of it.

Tests used:
[1] = target: human CDK4 and genetically truncated (1-264) cyclin D3 (Homo sapiens, UniProt P11802); assay: Inhibition of CDK4/Cyclin D Retinoblastoma Kinase Activity; type: biochemical; conditions: for Ki: apparent Ki, CDK4/truncated cyclin D3, Rb fragment substrate, 25 μM ATP
Sequence of human CDK4 and genetically truncated (1-264) cyclin D3 (P11802 whole entry, the tested form may be a part): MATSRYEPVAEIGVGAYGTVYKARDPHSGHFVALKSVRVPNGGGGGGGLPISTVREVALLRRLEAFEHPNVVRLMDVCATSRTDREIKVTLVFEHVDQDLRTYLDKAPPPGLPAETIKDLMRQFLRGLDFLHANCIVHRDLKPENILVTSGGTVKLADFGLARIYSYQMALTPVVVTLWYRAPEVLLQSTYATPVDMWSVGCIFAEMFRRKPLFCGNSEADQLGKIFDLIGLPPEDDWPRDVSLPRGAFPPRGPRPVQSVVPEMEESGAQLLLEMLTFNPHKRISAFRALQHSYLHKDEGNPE
Sequence of human CDK4 and genetically truncated (1-264) cyclin D3 (P30281 1-264 partner): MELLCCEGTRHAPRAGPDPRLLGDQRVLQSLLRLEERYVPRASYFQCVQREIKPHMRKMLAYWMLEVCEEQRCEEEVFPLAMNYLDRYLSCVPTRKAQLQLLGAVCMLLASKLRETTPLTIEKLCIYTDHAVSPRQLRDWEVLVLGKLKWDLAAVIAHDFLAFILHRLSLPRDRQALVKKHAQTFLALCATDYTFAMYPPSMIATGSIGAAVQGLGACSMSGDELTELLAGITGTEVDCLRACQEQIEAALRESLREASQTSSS
How it was run: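 Read-out: 32P/33P incorporation into Rb fragment (386-928) captured on nitrocellulose, phosphorimager. Enzyme 5 nM CDK4/cyclin D3(1-264) from insect cells; ATP 25 μM, pH 7.4, 30 °C, 20 min (60 min for tight binders). Ki from competitive fits.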

HCT-116 cell line = assay: Inhibition of cell growth, tetrazolium salt (MTT) assay; type: cell-based; conditions: for IC50: Homo sapiens, HCT-116, 120 h, MTT, three to five days, read-out: HCT-116 IC50; for HCT-116 % Inhibition at 0.25 μM: 0.25 μM compound
How it was run: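 Cells in McCoy's 5A medium were left 4 h, then given graded compound concentrations in 0.5% (v/v) DMSO and incubated three to five days at 37° C (5% CO2). MTT was added to 0.2 mg/mL for 4 h more; DMSO-solubilized formazan was read at 540 nm against 0.5% DMSO-only controls.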

CDK2/Cyclin A = CDK2/Cyclin A (Homo sapiens, UniProt P24941); assay: Inhibition of CDK2/Cyclin A Retinoblastoma Kinase Activity; type: biochemical; conditions: for Ki: apparent Ki, CDK2/proteolyzed cyclin A, Rb fragment substrate, 25 μM ATP
How it was run: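 Human CDK2, baculovirus/insect-cell expressed, complexed with proteolyzed cyclin A (10 nM or 19 nM CDK2) phosphorylates an Rb fragment with 25 μM [32P/33P]ATP at pH 7.4, 30° C, for 60 or 75 minutes under initial-rate conditions. Filter-captured radioactivity is read by phosphorimager; apparent Ki from competitive-inhibition fits.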

[2] = 0.1 μM compound, HCT-116, Table 4

SMILES: Nc1nc(NC2CCN(C(=O)c3ccccc3[N+](=O)[O-])CC2)sc1C(=O)c1c(F)cccc1F [Example Q68]
- CDK4 % Inhibition at 0.03 μM ([1]; 0.03 μM compound, Table 4): 51%
- HCT-116 % Inhibition at 0.1 μM (HCT-116 cell line; [2]): 4%
- HCT-116 % Inhibition at 0.25 μM (HCT-116 cell line; HCT-116, Table 4): 33%
- CDK2 % Inhibition at 0.03 μM (CDK2/Cyclin A; 0.03 μM compound, Table 4): 41%

SMILES: COc1ccc(C(=O)N2CCC(Nc3nc(N)c(C(=O)c4c(F)cccc4F)s3)CC2)cc1 [Example Q28]
- CDK4 % Inhibition at 0.03 μM ([1]; 0.03 μM compound, Table 4): 82%
- HCT-116 % Inhibition at 0.1 μM (HCT-116 cell line; [2]): 6%
- HCT-116 % Inhibition at 0.25 μM (HCT-116 cell line; HCT-116, Table 4): 41%
- CDK2 % Inhibition at 0.03 μM (CDK2/Cyclin A; 0.03 μM compound, Table 4): 53%

SMILES: Nc1nc(NC2CCN(C(=O)CCOc3ccccc3)CC2)sc1C(=O)c1c(F)cccc1F [Example R173]
- CDK4 % Inhibition at 0.03 μM ([1]; at 0.03 μM): 43%
- HCT-116 % Inhibition at 0.1 μM (HCT-116 cell line; HCT-116 cells, at 0.1 μM): 0%
- HCT-116 5 Inhibition at 0.25 μM (HCT-116 cell line; HCT-116 cells): 43
- CDK2 % Inhibition at 0.03 μM (CDK2/Cyclin A; at 0.03 μM): 23%

SMILES: Cc1ccc(NC(=O)N2CCC(Nc3nc(N)c(C(=O)c4c(F)cccc4F)s3)CC2)cc1C [Example O48]
- CDK4 % Inhibition at 0.03 μM ([1]; 0.03 μM compound, Table 2): 11%
- HCT-116 % Inhibition at 0.25 μM (HCT-116 cell line; HCT-116, Table 2): 16%
- CDK2 % Inhibition At 0.03 μM (CDK2/Cyclin A; 0.03 μM compound, Table 2): 28%

SMILES: Cc1cccc(C(=O)N2CCC(Nc3nc(N)c(C(=O)c4c(F)cccc4F)s3)CC2)c1C [Example R125]
- CDK4 % Inhibition at 0.03 μM ([1]; at 0.03 μM): 33%
- HCT-116 % Inhibition at 0.1 μM (HCT-116 cell line; HCT-116 cells, at 0.1 μM): 0%
- HCT-116 5 Inhibition at 0.25 μM (HCT-116 cell line; HCT-116 cells): 42
- CDK2 % Inhibition at 0.03 μM (CDK2/Cyclin A; at 0.03 μM): 18%

SMILES: Nc1nc(NC2CCN(C(=O)c3cc(Cl)cc(Cl)c3)CC2)sc1C(=O)c1c(F)cccc1F [Example R134]
- CDK4 % Inhibition at 0.03 μM ([1]; at 0.03 μM): 51%
- HCT-116 % Inhibition at 0.1 μM (HCT-116 cell line; HCT-116 cells, at 0.1 μM): 45%
- HCT-116 5 Inhibition at 0.25 μM (HCT-116 cell line; HCT-116 cells): 95
- CDK2 % Inhibition at 0.03 μM (CDK2/Cyclin A; at 0.03 μM): 29%

SMILES: Nc1nc(NC2CCN(S(=O)(=O)c3ccc(Cl)c([N+](=O)[O-])c3)CC2)sc1C(=O)c1c(F)cccc1F [Example P15]
- CDK4 % Inhibition at 0.03 μM ([1]; 0.03 μM compound, Table 3): 65%
- HCT-116 % Inhibition at 0.1 μM (HCT-116 cell line; 0.1 μM compound, HCT-116, Table 3): 30%
- HCT-116 % Inhibition at 0.25 μM (HCT-116 cell line; HCT-116, Table 3): 34%
- CDK2 % Inhibition at 0.03 μM (CDK2/Cyclin A; 0.03 μM compound, Table 3): 50%

SMILES: COCCNCCS(=O)(=O)N1CCC(Nc2nc(N)c(C(=O)c3c(F)cccc3F)s2)CC1 [Example K25, (4-Amino-2-{1-[2-(2-methoxy-ethylamino}-ethanesulfonyl]-piperidin-4-ylamino}-thiazol-5-yl)-(2,6-difluoro-phenyl)-methanone Trifluoroacetic Acid Salt.]
- Ki [1]: 1.4 nM
- IC50 (HCT-116 cell line; first HCT-116 column (c4)): 880 nM
- IC50 (HCT-116 cell line; second HCT-116 column (c5)): 2600 nM
- Ki (CDK2/Cyclin A): 4.4 nM

SMILES: Cc1ccc(Sc2ncccc2C(=O)N2CCC(Nc3nc(N)c(C(=O)c4c(F)cccc4F)s3)CC2)cc1 [Example R42]
- CDK4 % Inhibition at 0.03 μM ([1]; at 0.03 μM): 53%
- HCT-116 % Inhibition at 0.1 μM (HCT-116 cell line; HCT-116 cells, at 0.1 μM): 0%
- HCT-116 5 Inhibition at 0.25 μM (HCT-116 cell line; HCT-116 cells): 48
- CDK2 % Inhibition at 0.03 μM (CDK2/Cyclin A; at 0.03 μM): 49%

SMILES: Nc1nc(NC2CCN(C(=O)Oc3ccc(Cl)cc3)CC2)sc1C(=O)c1c(F)cccc1F [Example Q5]
- CDK4 % Inhibition at 0.03 μM ([1]; 0.03 μM compound, Table 4): 81%
- HCT-116 % Inhibition at 0.1 μM (HCT-116 cell line; [2]): 0.81%
- HCT-116 % Inhibition at 0.25 μM (HCT-116 cell line; HCT-116, Table 4): 36%
- CDK2 % Inhibition at 0.03 μM (CDK2/Cyclin A; 0.03 μM compound, Table 4): 45%

Other lines, results leading:

- Ki [1]: 0.64 nM
- IC50 (HCT-116 cell line; first HCT-116 column (c4)): 170 nM
- IC50 (HCT-116 cell line; second HCT-116 column (c5)): 3900 nM
- Ki (CDK2/Cyclin A): < 1 nM
SMILES: Nc1nc(NC2CCN(S(=O)(=O)c3ccc(N4CCC[C@@H]4CO)nc3)CC2)sc1C(=O)c1c(F)cccc1F [Example G13, 1-{4-Amino-2-{1-[6-(2R-hydroxymethyl-pyrrolidin-1-yl)-pyridine-3-sulfonyl]-piperidin-4-ylamino}-thiazol-5-yl)-1-(2,6-difluoro-phenyl)-methanone Trifluoroacetic Acid Salt]

- Ki [1]: 4.8 nM
- IC50 (HCT-116 cell line; first HCT-116 column (c4)): 130 nM
- IC50 (HCT-116 cell line; second HCT-116 column (c5)): 300 nM
- Ki (CDK2/Cyclin A): 2.8 nM
SMILES: Nc1nc(NC2CCN(S(=O)(=O)c3cccnc3)CC2)sc1C(=O)c1c(F)cccc1F [Example F23, 1-{4-Amino-2-[1-(pyridine-3-sulfonyl)-piperidin-4-ylamino]-thiazol-5-yl}-1-(2,6-difluoro-phenyl)-methanone]

- Ki [1]: 0.28 nM
- IC50 (HCT-116 cell line; first HCT-116 column (c4)): 42 nM
- IC50 (HCT-116 cell line; second HCT-116 column (c5)): 130 nM
- Ki (CDK2/Cyclin A): 6.9 nM
SMILES: CN1CCC[C@H](COc2ccc(S(=O)(=O)N3CCC(Nc4nc(N)c(C(=O)c5c(F)cccc5F)s4)CC3)cn2)C1 [Example H11, 1-(4-Amino-2-{1-[6-(1-methyl-piperidin-3S-ylmethoxy)-pyridine-3-sulfonyl]-piperidin-4-ylamino}-thiazol-5-yl)-1-(2,6-difluoro-phenyl)-methanone Dihydrochloride]

- Ki [1]: 0.35 nM
- IC50 (HCT-116 cell line; first HCT-116 column (c4)): 890 nM
- IC50 (HCT-116 cell line; second HCT-116 column (c5)): 4000 nM
- Ki (CDK2/Cyclin A): 0.93 nM
SMILES: Nc1nc(NC2CCN(S(=O)(=O)c3ccc(CCN4CCC(O)C4)nc3)CC2)sc1C(=O)c1c(F)cccc1F (stereo not shown) [Example N7, [4-Amino-2-(1-{6-[2-(3-hydroxy-pyrrolidin-1-yl)-ethyl]-pyridine-3-sulfonyl}-piperidin-4-ylamino)-thiazol-5-yl]-(2,6-difluoro-phenyl)-methanone Hydrochloride Salt.]
